PMC7407272, “Induction of Lysosome Membrane Permeabilization as a Therapeutic Strategy to Target Pancreatic Cancer Stem Cells” (Cancers, 2020)

Columns and labels:
AAK1 = target: T1, AAK1 (Homo sapiens, UniProt Q2M2I8); assay: KINOMEscan; assay type: binding; conditions: read-out: % Ctrl
T1 construct: purchased DiscoveRx KINOMEscan

FLT3-autoi. = target: T2, FLT3-autoi. (Homo sapiens, UniProt P36888); assay: KINOMEscan; assay type: binding; conditions: read-out: % Ctrl
T2 construct: purchased DiscoveRx KINOMEscan
T2 sequence (P36888 27-993): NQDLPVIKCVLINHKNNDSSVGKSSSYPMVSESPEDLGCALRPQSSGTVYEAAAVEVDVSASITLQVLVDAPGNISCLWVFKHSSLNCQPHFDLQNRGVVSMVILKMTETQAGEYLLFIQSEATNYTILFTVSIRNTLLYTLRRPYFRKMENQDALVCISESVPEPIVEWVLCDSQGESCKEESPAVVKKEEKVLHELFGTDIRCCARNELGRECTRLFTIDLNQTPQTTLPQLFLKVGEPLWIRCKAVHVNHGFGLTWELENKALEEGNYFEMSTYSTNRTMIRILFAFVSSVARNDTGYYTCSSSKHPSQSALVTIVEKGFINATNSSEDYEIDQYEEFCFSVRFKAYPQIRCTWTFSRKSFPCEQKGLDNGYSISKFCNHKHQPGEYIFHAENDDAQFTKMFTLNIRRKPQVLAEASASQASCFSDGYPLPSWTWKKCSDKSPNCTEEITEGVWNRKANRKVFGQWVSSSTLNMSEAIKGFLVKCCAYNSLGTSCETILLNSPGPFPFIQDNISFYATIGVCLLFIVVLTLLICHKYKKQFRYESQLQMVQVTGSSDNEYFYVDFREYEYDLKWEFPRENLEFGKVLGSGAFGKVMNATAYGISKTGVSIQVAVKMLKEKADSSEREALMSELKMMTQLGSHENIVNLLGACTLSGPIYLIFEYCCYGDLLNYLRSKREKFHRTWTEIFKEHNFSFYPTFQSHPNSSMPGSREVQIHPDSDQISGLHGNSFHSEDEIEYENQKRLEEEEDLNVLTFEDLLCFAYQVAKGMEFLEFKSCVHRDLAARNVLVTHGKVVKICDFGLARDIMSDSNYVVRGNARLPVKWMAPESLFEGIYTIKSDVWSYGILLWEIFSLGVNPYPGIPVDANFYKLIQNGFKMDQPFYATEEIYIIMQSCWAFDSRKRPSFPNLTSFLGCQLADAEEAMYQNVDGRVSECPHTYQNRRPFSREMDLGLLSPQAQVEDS

GAK = target: T3, GAK (Homo sapiens, UniProt O14976); assay: KINOMEscan; assay type: binding; conditions: read-out: % Ctrl
T3 construct: purchased DiscoveRx KINOMEscan
T3 sequence (O14976 whole entry): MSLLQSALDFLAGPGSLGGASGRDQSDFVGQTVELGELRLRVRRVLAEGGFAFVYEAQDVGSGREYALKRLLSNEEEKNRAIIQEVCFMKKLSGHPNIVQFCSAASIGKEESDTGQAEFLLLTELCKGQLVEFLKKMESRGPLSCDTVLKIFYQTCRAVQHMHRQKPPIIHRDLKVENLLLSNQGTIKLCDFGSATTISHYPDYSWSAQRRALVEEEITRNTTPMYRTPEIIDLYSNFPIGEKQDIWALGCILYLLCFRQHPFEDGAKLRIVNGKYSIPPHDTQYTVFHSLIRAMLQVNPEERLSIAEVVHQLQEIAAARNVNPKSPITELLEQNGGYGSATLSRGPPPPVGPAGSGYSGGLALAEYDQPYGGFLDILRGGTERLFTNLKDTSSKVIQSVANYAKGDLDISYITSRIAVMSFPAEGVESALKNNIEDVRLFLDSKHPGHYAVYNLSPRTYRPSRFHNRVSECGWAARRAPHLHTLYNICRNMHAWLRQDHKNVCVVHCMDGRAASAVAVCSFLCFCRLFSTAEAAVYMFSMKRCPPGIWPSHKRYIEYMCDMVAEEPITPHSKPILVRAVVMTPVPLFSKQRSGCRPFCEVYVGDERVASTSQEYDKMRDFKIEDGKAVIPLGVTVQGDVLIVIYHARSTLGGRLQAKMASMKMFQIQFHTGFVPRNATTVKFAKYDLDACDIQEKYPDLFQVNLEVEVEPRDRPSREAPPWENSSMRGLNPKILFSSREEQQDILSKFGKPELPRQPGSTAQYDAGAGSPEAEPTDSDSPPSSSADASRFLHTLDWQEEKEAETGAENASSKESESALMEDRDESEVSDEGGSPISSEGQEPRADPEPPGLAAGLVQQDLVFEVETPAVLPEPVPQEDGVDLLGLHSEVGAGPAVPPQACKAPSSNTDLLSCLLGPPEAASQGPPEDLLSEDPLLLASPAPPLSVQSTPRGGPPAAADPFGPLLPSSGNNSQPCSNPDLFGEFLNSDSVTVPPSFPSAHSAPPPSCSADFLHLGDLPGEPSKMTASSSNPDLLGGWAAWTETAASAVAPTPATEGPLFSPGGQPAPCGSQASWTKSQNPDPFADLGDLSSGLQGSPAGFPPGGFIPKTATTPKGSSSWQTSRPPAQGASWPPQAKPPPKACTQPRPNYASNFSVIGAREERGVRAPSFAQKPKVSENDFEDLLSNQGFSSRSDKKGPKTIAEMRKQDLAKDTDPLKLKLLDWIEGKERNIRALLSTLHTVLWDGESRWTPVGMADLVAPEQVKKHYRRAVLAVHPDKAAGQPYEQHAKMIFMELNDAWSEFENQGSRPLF

PRKCE = target: T4, PRKCE (Homo sapiens, UniProt Q02156); assay: KINOMEscan; assay type: binding; conditions: read-out: % Ctrl
T4 construct: purchased DiscoveRx KINOMEscan

RET(M918T) = target: T5, RET(M918T) (Homo sapiens, UniProt P07949, M918T); assay: KINOMEscan; assay type: binding; conditions: read-out: % Ctrl
T5 construct: purchased DiscoveRx KINOMEscan
T5 sequence (P07949 29-1114 M918T): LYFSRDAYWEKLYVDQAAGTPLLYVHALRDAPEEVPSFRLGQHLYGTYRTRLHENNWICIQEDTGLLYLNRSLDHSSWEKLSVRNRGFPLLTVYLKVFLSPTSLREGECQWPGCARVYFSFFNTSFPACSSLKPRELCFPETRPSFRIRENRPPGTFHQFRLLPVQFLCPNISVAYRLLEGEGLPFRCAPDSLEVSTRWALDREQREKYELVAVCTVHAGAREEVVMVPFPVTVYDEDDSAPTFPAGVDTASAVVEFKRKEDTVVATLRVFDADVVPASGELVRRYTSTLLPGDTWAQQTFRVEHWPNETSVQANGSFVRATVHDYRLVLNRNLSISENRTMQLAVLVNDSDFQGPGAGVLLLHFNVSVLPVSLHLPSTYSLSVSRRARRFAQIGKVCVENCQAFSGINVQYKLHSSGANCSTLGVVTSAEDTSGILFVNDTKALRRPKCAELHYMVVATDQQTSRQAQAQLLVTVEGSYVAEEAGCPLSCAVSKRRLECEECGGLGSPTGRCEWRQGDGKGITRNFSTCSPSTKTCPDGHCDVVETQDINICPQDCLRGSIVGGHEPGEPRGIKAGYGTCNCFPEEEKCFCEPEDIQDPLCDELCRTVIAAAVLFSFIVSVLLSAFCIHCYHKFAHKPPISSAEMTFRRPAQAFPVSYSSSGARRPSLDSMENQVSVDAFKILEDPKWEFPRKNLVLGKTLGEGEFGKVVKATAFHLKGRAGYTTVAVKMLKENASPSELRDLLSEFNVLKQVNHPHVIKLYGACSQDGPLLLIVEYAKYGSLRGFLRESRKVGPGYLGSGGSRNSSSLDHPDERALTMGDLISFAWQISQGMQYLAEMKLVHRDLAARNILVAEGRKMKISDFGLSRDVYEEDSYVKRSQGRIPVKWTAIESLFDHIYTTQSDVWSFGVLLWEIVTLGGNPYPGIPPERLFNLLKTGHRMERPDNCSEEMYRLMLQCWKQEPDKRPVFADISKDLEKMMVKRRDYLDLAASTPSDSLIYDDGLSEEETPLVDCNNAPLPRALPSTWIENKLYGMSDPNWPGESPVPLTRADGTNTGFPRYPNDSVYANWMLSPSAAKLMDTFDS

MAP3K2 = target: T6, MAP3K2 (Homo sapiens, UniProt Q9Y2U5); assay: KINOMEscan; assay type: binding; conditions: read-out: % Ctrl
T6 construct: purchased DiscoveRx KINOMEscan
T6 sequence (Q9Y2U5 whole entry): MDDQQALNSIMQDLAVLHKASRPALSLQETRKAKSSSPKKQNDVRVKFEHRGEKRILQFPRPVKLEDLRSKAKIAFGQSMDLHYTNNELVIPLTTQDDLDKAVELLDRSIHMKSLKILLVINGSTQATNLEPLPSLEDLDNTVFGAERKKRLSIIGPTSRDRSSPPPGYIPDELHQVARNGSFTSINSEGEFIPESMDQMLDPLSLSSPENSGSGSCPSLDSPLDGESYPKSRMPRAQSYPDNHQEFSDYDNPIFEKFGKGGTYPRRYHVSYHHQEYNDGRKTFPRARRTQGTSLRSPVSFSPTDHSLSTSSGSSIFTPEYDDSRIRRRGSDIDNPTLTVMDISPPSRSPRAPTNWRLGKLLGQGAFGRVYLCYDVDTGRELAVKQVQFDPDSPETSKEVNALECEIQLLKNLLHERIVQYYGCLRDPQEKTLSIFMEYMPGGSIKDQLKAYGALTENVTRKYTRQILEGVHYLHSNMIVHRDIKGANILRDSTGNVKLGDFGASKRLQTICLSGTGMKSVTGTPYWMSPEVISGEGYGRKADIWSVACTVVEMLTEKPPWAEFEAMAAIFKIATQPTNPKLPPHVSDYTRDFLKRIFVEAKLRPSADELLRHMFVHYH

STK33 = target: T7, STK33 (Homo sapiens, UniProt Q9BYT3); assay: KINOMEscan; assay type: binding; conditions: read-out: % Ctrl
T7 construct: purchased DiscoveRx KINOMEscan
T7 sequence (Q9BYT3 whole entry): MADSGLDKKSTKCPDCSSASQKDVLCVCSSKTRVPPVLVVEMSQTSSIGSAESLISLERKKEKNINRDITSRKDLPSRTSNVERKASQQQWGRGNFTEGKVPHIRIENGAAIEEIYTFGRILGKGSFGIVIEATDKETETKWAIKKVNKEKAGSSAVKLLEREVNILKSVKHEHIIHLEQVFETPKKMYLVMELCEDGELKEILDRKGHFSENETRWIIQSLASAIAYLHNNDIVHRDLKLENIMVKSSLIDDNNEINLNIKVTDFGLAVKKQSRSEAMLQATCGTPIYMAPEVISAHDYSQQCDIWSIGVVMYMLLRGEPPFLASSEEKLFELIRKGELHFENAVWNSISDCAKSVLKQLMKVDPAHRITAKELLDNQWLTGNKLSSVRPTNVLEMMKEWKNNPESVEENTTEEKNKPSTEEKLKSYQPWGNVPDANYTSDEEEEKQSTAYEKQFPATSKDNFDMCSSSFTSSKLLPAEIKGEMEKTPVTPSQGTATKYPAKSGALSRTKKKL

MST3 = target: T8, MST3 (Homo sapiens, UniProt Q9Y6E0); assay: KINOMEscan; assay type: binding; conditions: read-out: % Ctrl
T8 construct: purchased DiscoveRx KINOMEscan
T8 sequence (Q9Y6E0 whole entry): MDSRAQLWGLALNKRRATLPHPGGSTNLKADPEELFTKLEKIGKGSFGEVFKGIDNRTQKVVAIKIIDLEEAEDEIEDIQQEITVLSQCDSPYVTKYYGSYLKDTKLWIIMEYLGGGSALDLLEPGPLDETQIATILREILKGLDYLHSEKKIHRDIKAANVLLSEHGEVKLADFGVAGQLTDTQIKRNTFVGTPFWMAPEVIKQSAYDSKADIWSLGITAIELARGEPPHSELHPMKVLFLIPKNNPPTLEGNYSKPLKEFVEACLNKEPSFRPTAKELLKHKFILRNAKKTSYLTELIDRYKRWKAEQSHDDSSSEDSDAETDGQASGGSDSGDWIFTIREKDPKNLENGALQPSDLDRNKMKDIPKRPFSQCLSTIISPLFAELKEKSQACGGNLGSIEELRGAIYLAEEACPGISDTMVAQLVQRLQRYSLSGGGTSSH

PDAC1 xenografts = assay: PDX treatment in nude mice; assay type: in vivo, NU-Foxn1nu nude mice; conditions: PDAC1 PDX; GEM 125 mg/kg i.p. biweekly, SIR 30 mg/kg oral gavage; 23 days
Protocol: (§1) Cells were analyzed with a 4-laser Attune NxT Acoustic Cytometer (ThermoFisher Scientific). Cells and digested tumors (as described in [41]) were resuspended in FLOW buffer (1X PBS; 3 mM EDTA (v/v); 3% FBS (v/v)), and the following fluorescently-tagged antibodies were used to label cells for 30 min at 4 °C: Mouse monoclonal anti-human CD133-PE (1:20, Cat no. 130-110-962, Miltenyi, Bergisch Gladbach, Germany), Mouse monoclonal anti-human CD133-APC (1:20, Cat no. 130-111-080, Miltenyi, Bergisch Gladbach, Germany), mouse monoclonal anti-human C-X-C chemokine receptor type 4- Phycoerythrin (CXCR4-PE) (1:20, Cat no. 130-117-354, Miltenyi, Bergisch Gladbach, Germany), or mouse monoclonal anti-human Epithelial cell adhesion molecule-fluorescein isothiocyanate (EpCAM-FITC) (1:20, Cat no. 130-111-115, Miltenyi, Bergisch Gladbach, Germany). Autofluorescent cells were excited with blue laser 488nm and selected as the intersection with the filters 530/40 and 580/30 as previously described. For lysosomes quantification, Acridine Orange (AO) (A1301, Thermo Fisher Scientific, Waltham, MA, USA) or Lysotracker Deep Red (DR) (L12492, Molecular probes, Life Technologies, Waltham, MA, USA) were used. AO fluorescence was assessed with two combinations of excitation and emission spectra: BL1 […] BL3 (Ex488/Em695/40, equal to the far-red channel (>670 nm)) Lysotracker DR fluorescence was assessed with RL1 (Ex638/Em670/14). Bafilomycin A1 (100 nM, Calbiochem, San Diego, CA, USA) was included as a positive control for lysosome disruption. For Annexin V staining, floating and attached cells were pooled and resuspended in 1× AnnexinV staining buffer containing AnnexinV-APC diluted 1:20 (Biotium, Freemont, CA, USA) and incubated for 20 min at room temperature prior to flow cytometric analysis. For all assays, DAPI was used to mark and exclude dead cells, and data were analyzed using the software FlowJo v9.3 (Tree Star Inc., Ashland, OR, USA).
(§2) Female 6- to 8-week-old NU-Foxn1nu nude mice (Envigo, Spain) were subcutaneously injected with control or pre-treated 1 × 10^4 PDAC cells in 50 µL of Matrigel^TM (Corning). Tumor growth was monitored bi-weekly for up to 10 weeks. For Siramesine experiments, mice were subcutaneously implanted with PDAC1 and PDAC3 PDXs. After 4 weeks of tumor growth, mice were randomized into treatment groups (5 mice per group). Mice were treated with Siramesine twice a week (30 mg/kg by oral gavage formulated in 0.5% methylcellulose 15 cP in 0.9% NaCl solution) for ~4 weeks. Gemcitabine (GEMZAR®, Eli Lilly, Indianapolis, IN, USA) was administered twice a week (125 mg/kg i.p.) for ~4 weeks. Tumor volumes (mm^3) were determined twice per week using a digital caliper. Mice were sacrificed at 24 days post treatment initiation and tumors were extracted and analyzed by flow cytometry as described above. For second generation tumor formation, 1000 and 100 cells of indicated treatment groups were resuspended in Matrigel ^TM and injected subcutaneously in recipient NU-Foxn1nu nude mice and tumor formation was monitored for 10 weeks. Mice were housed according to institutional guidelines and all experiments were performed in compliance with the institutional guidelines for the welfare of experimental animals approved by the Universidad Autónoma de Madrid Ethics Committee (CEI 60-1057-A068) or by the Instituto de Salud Carlos III Ethics Committee (CBA12_2014-v3) and La Comunidad de Madrid (PROEX 335/14 or PROEX 53/14) and in accordance with the guidelines for Ethical Conduct in the Care and Use of Animals as stated in The International Guiding Principles for Biomedical Research involving Animals, developed by the Council for International Organizations of Medical Sciences (CIOMS).

PDAC3 xenografts = assay: PDX treatment in nude mice; assay type: in vivo, NU-Foxn1nu nude mice
Protocol: as §1, §2

Structure (SMILES) | remaining binding at 1 µM (AAK1) | remaining binding at 1 µM (FLT3-autoi.) | remaining binding at 1 µM (GAK) | remaining binding at 1 µM (PRKCE) | remaining binding at 1 µM (RET(M918T)) | remaining binding at 1 µM (MAP3K2) | remaining binding at 1 µM (STK33) | remaining binding at 1 µM (MST3) | tumor volume versus control (PDAC1 xenografts) | tumor volume versus control (PDAC3 xenografts; PDAC3 PDX, GEM 125 mg/kg i.p. biweekly, SIR 30 mg/kg oral gavage, 23 days) | percentage of CD133+ and CD133+/CXCR4+ in tumors (PDAC3 xenografts; PDAC3 tumors, 30 mg/kg)
CN1CCC(CNc2ccc3ncc(C(=O)Nc4cccc(OC(F)(F)F)c4)n3n2)CC1 [Cpd 2] | 89% | 82% | 89% | 70% | 100% | 92% | 100% | 96% |  |  | 
Fc1ccc(-n2cc(CCCCN3CCC4(CC3)OCc3ccccc34)c3ccccc32)cc1 [siramesine] |  |  |  |  |  |  |  |  | no significant differences | no significant differences | reduce
